Assays:
[1] = test system: G124/125A 5-12 G-quadruplex; test: CD kinetics, temperature-jump, G124/125A; assay type: biochemical, human; details: 2 equiv
Experimental: (§1) FIGS. 10A and 10B are a set of graphs showing (A) comparison of kinetics of initial folding rate of the WT 5-12 G-quadruplex with GTC365 and BRACO-19 by the temperature-jump method. (B) Enhanced initial folding rate of the 5-12 G-quadruplexes carrying different hTERT mutants by GTC365. The time-course CD signal of preheated oligo with compound or DMSO in a buffer containing 10 mM Tris-HCl (pH 7.5) and 5 mM KCl was monitored at 262 nm and 25° C.
(§2) For the kinetics analysis using the temperature-jump method, theoligo in a buffer containing 10 mM Tris-HCl (pH 7.5) was heated forl min at 95° C., and then a mixture of KCl and compound was addedand incubated for 1 min. Meanwhile, the CD cuvette was also heatedat 95° C. As soon as the sample in the CD cuvette at the hightemperature was placed in the CD chamber, a time-dependent CDsignal at 262 nm was recorded immediately. The initial folding ratewas determined by one-phase association curve fitting (eq 1) of thekinetics curve using GraphPad Prism 5: Y=Y0+(Plateau−Y0)*(1−e^−kx) (1) where Y is the CD signal at any time point x, Y0 is the Y value whentime (x) is zero, plateau is the Y value at infinite time, and k is the rateconstant.
(§3) To evaluate the comparative effects of GTC365 relative to BRACO-19 on the cooperative folding process, we carried out two different experiments. […]

[2] = test system: G124A 5-12 G-quadruplex; test: CD kinetics, temperature-jump, G124A; assay type: biochemical, human; details: 2 equiv
Experimental: as §1, §2, §3

[3] = test system: hTERT protein; test: Western blot of hTERT protein in MCF7 cells; assay type: cell-based, human
Experimental: Western blot analysis. GTC365- or DMSO-treated MCF7 cells were lysed by RIPA buffer and the supernatant of lysate was obtained by centrifugation at 14,000 rpm for 15 min. The concentration of the whole cellular protein was determined by Bradford assay. The same amount of proteins (120 μg) was separated on 8% SDS-PAGE and transferred to PVDF membrane in 20% MeOH/1× Tris-glycine. The membrane was incubated in a blocking buffer containing 5% BSA/5% non-fat milk with TBS-T (0.1% Tween 20) for 90 min at room temperature prior to overnight incubation with hTERT antibody against rabbit (1:200, Santa Cruz #H231, pAb) in 5% BSA/TBS-T buffer at 4° C. […]
Immunoblot analysis. […] The concentration of the whole cellular protein was determined byBradford assay. […]
BCL2 is a downstream molecule to hTERT such that BCL2 expression is activated by hTERT to repress apoptosis. To further define the effect of GTC365 on the transcription of hTERT, the relative mRNA levels of MYC and BCL2 were determined by quantitative PCR analysis in MCF7 cells after treatment with GTC365 for 72 h. […] A series of GTC260 analogs were synthesized and their effect on hTERT gene expression in MCF7A and U87 cells determined (FIG. 7). […]

## N=C(N)NCCCS(=O)(=O)Nc1ccc(Nc2c3ccccc3nc3cc([N+](=O)[O-])ccc23)cc1 [GTC365]
[1]
  increase of initial folding rate: 0.042 s⁻¹
[2]
  increase of initial folding rate: 0.049 s⁻¹
[3]
  hTERT protein level: downregulated

From patent publication US10556860B2, “hTERT modulators and methods of use” (Arizona Board of Regents on Behalf of the University of …, priority 2015, dated 2020)
